Entries after “also recorded” stand apart in the source; their conditions may differ.
How the values were obtained:
[1] = system: atrial region of heteropolar Biowires (Hes3 hESC); test: Optical mapping of impulse propagation in atrioventricular Biowires, atrial region; format: cell-based, human; conditions: 1 μM
Protocol: (§1) To generate atrioventricular tissues, dissociated atrial cardiac cells and cardiac fibroblasts were mixed in a 10:1.5 cell number ratio. Dissociated ventricular cells and cardiac fibroblasts were mixed in a 10:1.5 cell number ratio. The mixed cells were pelleted and resuspended at a concentration of 5.75×10^7 cells/mL in collagen hydrogel. When seeding, cell-hydrogel mixture containing atrial CMs (1 μL) were seeded on one side of the Biowire II well first, followed by mixture containing ventricular CMs (1 μL) seeded on the other side. After seeding, tissues were cultured for 7 days to allow for remodeling and compaction around the POMaC wires.
(§2) For atrioventricular preparations, electrical stimulation started at 2 Hz on day 7 and the protocol of 1 Hz weekly step-up was used until the frequency reached 6 Hz. If average MCR exceeded 4 Hz after one week of 2 Hz stimulation, or exceeded 5 Hz after one week of 3 Hz stimulation, stimulation frequency could be changed directly from 2 Hz to 4 Hz or 3 Hz to 5 Hz to accelerate the process. […]
(§3) Tissues were perfused with 5 μM voltage sensitive dye, Di-4-ANEPPS (Invitrogen), in Kreb's Solution at 35-37° C. for 20 min. Dye fluorescence was recorded on an MVX-10 Olympus fluorescence microscope (Olympus Corporation) equipped with a charged coupled device (CCD) (Cascade 128, Photometrics). […]

[2] = system: ventricular portions of heteropolar Biowires (Hes3 hESC); test: Optical mapping of impulse propagation in atrioventricular Biowires, ventricular region; format: cell-based, human; conditions: 1 μM, listed as Ranolazine
Protocol: as §1, §2, §3

[3] = system: ventricular tissue derived from BJ1D iPSC-CM; test: Force and calcium transient measurement in ventricular Biowires; format: cell-based, human
Protocol: To investigate the contractile effects of various compounds on the tissues, a custom testing chamber was fabricated in a 6-well plate modified with an extraction/injection port connected to a 5 mL syringe, a pair of carbon electrodes (set 1 cm apart) with platinum wire lead attachments and a custom 3D-printed holder for a polystyrene chip with a single microwell. Prior to testing, the tissue was transferred to the custom testing chamber and placed in the environmental chamber on the microscope stage (37° C., 5% CO2), where it was allowed to equilibrate for 30 min in the presence of electrical field stimulation (1 Hz, at ET). A bright field video of the tissue was taken before testing to obtain all the necessary measurements for the force calculation. For testing, the voltage was increased to 10% above the ET, and videos were taken of one polymer wire (10× objective). Prior to the test compound injection, media were extracted and injected through the port twice at 10 min intervals to pre-condition the tissue to the testing process. […] For compound testing, ⅓^rd of the media was extracted from the chamber, the compound was added to the extracted media and then injected back into the testing chamber. After 10-15 min, videos in the blue channel were recorded. The procedure was repeated for sequential drug dosages. The videos were analyzed using the custom MatLab software, as indicated for the weekly FFR assessments.
(§4) To investigate the relative changes of intracellular calcium concentration, tissues were incubated with the calcium dye Fluo-4 NW (Thermo Fisher) for 30 min at 37° C. prior to testing. […] The ratio of peak tissue fluorescence intensity to baseline intensity, dF/F0 was calculated to determine the relative changes in intracellular calcium in the presence of the compound. For the consecutive force and calcium transient readouts, contractile measurements were extracted from the blue channel as described before. For the synchronous readouts, the contractile measurements were extracted from the green channel videos using modified version of the ImageJ SpotTracker plugin. […]

[4] = system: atrial tissue derived from Hes3 hESC-CM; test: Force and calcium transient measurement in atrial Biowires; format: cell-based, human; conditions: atrial preparations, increasing concentrations
Protocol: To investigate the contractile effects of various compounds on the tissues, a custom testing chamber was fabricated in a 6-well plate modified with an extraction/injection port connected to a 5 mL syringe, a pair of carbon electrodes (set 1 cm apart) with platinum wire lead attachments and a custom 3D-printed holder for a polystyrene chip with a single microwell. Prior to testing, the tissue was transferred to the custom testing chamber and placed in the environmental chamber on the microscope stage (37° C., 5% CO2), where it was allowed to equilibrate for 30 min in the presence of electrical field stimulation (1 Hz, at ET). […] After 10-15 min, videos in the blue channel were recorded. […] The videos were analyzed using the custom MatLab software, as indicated for the weekly FFR assessments.
as §4, with “before.” for “before. For the synchronous readouts, the contractile measurements were extracted from the green channel videos using modified version of the ImageJ SpotTracker plugin.”

[5] = system: ventricular Biowires created from BJ1D iPSCs and HES3 ESCs; test: Dynamic force recordings of ventricular Biowires under stimulation; format: cell-based, human; conditions: FIG. 2G
Protocol: Blue channel image sequences were analyzed using a custom MatLab code that traced the maximum deflection of the POMaC wire. Average tissue width (diameter) and width of the tissue on the polymer wire (Tw) were measured from still frames of the 4× bright field video of the tissue in the relaxed position (FIGS. 8C-8D). Total (at peak contraction) and passive (at rest) POMaC wire deflections were converted to force measurements (μN) using the force calibration curves described in the previous section. The final readouts for the total and passive tension of tissue were then interpolated according to the Tw and custom tip sizes. The active force was calculated as the difference between the total and passive tension (FIG. 2C). The custom MatLab code was used to calculate the passive tension, active force, contraction and relaxation duration, and upstroke and relaxation velocity. To investigate the contractile effects of various compounds on the tissues, a custom testing chamber was fabricated in a 6-well plate modified with an extraction/injection port connected to a 5 mL syringe, a pair of carbon electrodes (set 1 cm apart) with platinum wire lead attachments and a custom 3D-printed holder for a polystyrene chip with a single microwell. Prior to testing, the tissue was transferred to the custom testing chamber and placed in the environmental chamber on the microscope stage (37° C., 5% CO2), where it was allowed to equilibrate for 30 min in the presence of electrical field stimulation (1 Hz, at ET). A bright field video of the tissue was taken before testing to obtain all the necessary measurements for the force calculation. For testing, the voltage was increased to 10% above the ET, and videos were taken of one polymer wire (10× objective). Prior to the test compound injection, media were extracted and injected through the port twice at 10 min intervals to pre-condition the tissue to the testing process. Compounds were diluted in media at concentrations 1000-fold higher than the desired final concentration. For compound testing, ⅓^rd of the media was extracted from the chamber, the compound was added to the extracted media and then injected back into the testing chamber. After 10-15 min, videos in the blue channel were recorded. The procedure was repeated for sequential drug dosages. The videos were analyzed using the custom MatLab software, as indicated for the weekly FFR assessments.

[6] = system: ventricular tissues derived from BJ1D iPSC-CM; test: Intracellular action potential recordings in ventricular Biowires; format: cell-based, human; conditions: for responses on action potentials: ventricular Biowires, FIGS. 12E-12N
Protocol: Tissues were perfused with 35-37° C. […] They were paced at twice the ET. The action potential was recorded with high impedance microelectrodes (60-90 MΩ) filled with 3M KCl, connected to an Axopatch 200B amplifier (Axon Instruments). Recordings were performed in current clamp mode at 2 kHz and signals were analyzed using the Clampfit 10 Data Analysis Module of the pCLAMP™ 10 Electrophysiology Data Acquisition & Analysis Software (Axon Instruments). The movement of the tissue was minimized by perfusing with 10 μM blebbistatin (Toronto Research Chemicals) for 20 min. The effect of various compounds on the action potential was assessed by preparing an appropriate dilution of the compound in Krebs's Solution or DMEM.

[7] = system: atrial tissues derived from Hes3 hESC-CM; test: Intracellular action potential recordings in atrial Biowires; format: cell-based, human
Protocol: Tissues were perfused with 35-37° C. Kreb's Solution (118 mM NaCl, 4.2 mM KCl, 1.2 mM KH2PO4, 1.2 mM MgSO4, 1.8 mM CaCl2, 23 mM NaHCO3, 2 mM Na-pyruvate and 20 mM glucose, equilibrated with 95% 02 and 5% CO2, pH 7.4) or DMEM medium. They were paced at twice the ET. The action potential was recorded with high impedance microelectrodes (60-90 MΩ) filled with 3M KCl, connected to an Axopatch 200B amplifier (Axon Instruments). Recordings were performed in current clamp mode at 2 kHz and signals were analyzed using the Clampfit 10 Data Analysis Module of the pCLAMP™ 10 Electrophysiology Data Acquisition & Analysis Software (Axon Instruments). The movement of the tissue was minimized by perfusing with 10 μM blebbistatin (Toronto Research Chemicals) for 20 min. The effect of various compounds on the action potential was assessed by preparing an appropriate dilution of the compound in Krebs's Solution or DMEM.

[8] = Long-term absorption test, PDMS chips; format: physicochemical; conditions: 1 wk incubation then washout for 2 hours
Protocol: (§5) For the long-term absorption test, polystyrene strips containing microwells and POMaC wires, with and without the adhesive, were cut into chips (9 mm×9 mm×1 mm) containing a single microwell. Chips of the same geometry were also made using PDMS. The polystyrene and PDMS chips were incubated in 1 mL Rhodamine B (1 μM; Sigma-Aldrich) in a 24 well-plate at 37° C. for up to 1 wk. Tissue culture treated 24 well-plates were incubated with the dye in the absence of any chips as a control. At 6 h, 24 h, 48 h, and 1 wk, 100 μL of the dye solution was transferred to a 96-well plate and the fluorescence was read using a SpectraMax i3 plate reader (Molecular Devices; λex=540 nm, λem=625 nm), (n=3). Additionally, fluorescent images of the chips were taken in the absence of treatment, after 1 wk of dye incubation, and after 2 h of washing following 1 wk of dye incubation.

[9] = Long-term absorption test, Biowire chips; format: physicochemical
Protocol: as §5

[10] = system: atrial end of heteropolar atrio-ventricular Biowires (Hes3 hESC); test: Calcium transients in atrioventricular Biowires, atrial end; format: cell-based, human
Protocol: as §1, with “wires. […]” for “wires.”
To investigate the relative changes of intracellular calcium concentration, tissues were incubated with the calcium dye Fluo-4 NW (Thermo Fisher) for 30 min at 37° C. prior to testing. To obtain both calcium transients and contractility readouts consecutively and synchronously, the testing process was performed using both green light channel (λex=490 nm, λem=525 nm) and/or blue channel at 10× or 4× magnification. […] The ratio of peak tissue fluorescence intensity to baseline intensity, dF/F0 was calculated to determine the relative changes in intracellular calcium in the presence of the compound. For the consecutive force and calcium transient readouts, contractile measurements were extracted from the blue channel as described before. […]

[11] = atrial Biowires, low doses (25 μM)

COc1ccccc1OCC(O)CN1CCN(CC(=O)Nc2c(C)cccc2C)CC1 (centres unmarked) [ranolazine]
conduction velocity [1]: significantly slowed down
conduction velocity ([1]; listed as Ranolazine): decreased conduction velocity
conduction velocity [2]: without affecting

C/C=C(/C)C(=O)O[C@H]1C(C)=C2[C@H]([C@@H]1OC(=O)CCCCCCC)[C@@](C)(OC(C)=O)C[C@H](OC(=O)CCC)[C@@]1(O)[C@H]2OC(=O)[C@@]1(C)O [thapsigargin]
potency in ventricular versus atrial preparations ([3]; decrease of force and Ca′ transient amplitudes): higher potency in ventricle
time-to-peak and decay rates of both force and Ca2+ ([3]; ventricular Biowires, low pacing rates): prolonged
force and Ca′ transient amplitudes ([3]; ventricular preparations, increasing concentrations): dose-dependently decreased
force and Ca′ transient amplitudes [4]: dose-dependently decreased

CC(C)NCC(O)c1ccc(O)c(O)c1 (centres unmarked) [isoproterenol]
changes in the active forces and beat patterns [5]: increases contractility

COc1ccc(CCN(C)CCCC(C#N)(c2ccc(OC)c(OC)c2)C(C)C)cc1OC (centres unmarked) [verapamil]
responses on action potentials [6]: predictable responses

Nc1ccncc1 [4AP, 4-aminopyridine]
APD30 [7, 11]: prolonged
action potential amplitudes [7, 11]: increased
AP duration ([7]; atrial tissues, very low concentrations (<50 μM)): prolonged
APD ([6]; ventricular tissues, higher doses): did prolong APD
action potential amplitudes and APD30 ([6]; ventricular tissues, low doses (25 μM)): without measurable effects

Cc1cccc(CCN2CCC(C(=O)c3ccc(NS(C)(=O)=O)cc3)CC2)n1 [E-4031]
changes in the active forces and beat patterns [5]: promotes spontaneous irregular beating patterns consistent with arrhythmias

CN(CCOc1ccc(NS(C)(=O)=O)cc1)CCc1ccc(NS(C)(=O)=O)cc1 [dofetilide]
responses on action potentials [6]: predictable responses

Cc1[nH]c(=O)c(C#N)cc1-c1ccncc1 [milrinone]
changes in the active forces and beat patterns [5]: enhances contractility

COc1ccc([C@@H]2Sc3ccccc3N(CCN(C)C)C(=O)[C@@H]2OC(C)=O)cc1 [diltiazem]
changes in the active forces and beat patterns [5]: produces negative inotropic effects

CCN(CC)c1ccc2c(-c3ccccc3C(=O)O)c3ccc(=[N+](CC)CC)cc-3oc2c1.[Cl-] [Rhodamine B]
fluorescence in chip after washout [8]: remained widespread
fluorescence levels in solution versus PDMS chips ([9]; 1 μM dye, 37° C., incubation 24 hours and longer): remained higher than in PDMS chips
fluorescence in chip after washout ([9]; 1 wk incubation then washout for 2 hours): undetectable
levels versus tissue plastic well controls ([9]; after 6 hours): not significantly different

NCCc1c[nH]c2ccc(O)cc12 [serotonin]
Ca2+ transients [10]: increased; also recorded: positive inotropic effect

C[N+](C)(C)CCOC(N)=O [carbachol]
APDs (action potential durations) ([7]; atrial Biowires): abbreviated APDs; also recorded: shortened atrial APDs only
APDs (action potential durations) ([6]; ventricular tissues): without affecting these parameters

CCN(CC)CC(=O)Nc1c(C)cccc1C [lidocaine]
changes in the active forces and beat patterns [5]: inhibits tissue electrical excitability

From patent US12371668B2, “Methods for tissue generation” (priority 2018, dated 2025)
